Tests used:
p53 Lys370 methylation = assay: Western blot time course and subcellular fractionation, KYSE-150 cells stably expressing FLAG-SMYD2; type: cell-based, human
Description: 5 × 10^6 KYSE-150 cells or KYSE-150 cells stably overexpressing SMYD2 were harvested and separated into subcellular fractions using the Subcellular Protein Fractionation kit for cultured cells (Thermo Scientific) according to the manufacturer's instructions. Lysates were reduced, boiled, subjected to 4–20% SDS-PAGE, and transferred to nitrocellulose membranes. […] Each membrane was then incubated with ECL anti-rabbit or anti-mouse IgG HRP-linked whole antibody (GE Healthcare) followed by detection with SuperSignal West Femto Maximum Sensitivity Substrate (Thermo Scientific) on a ChemiDoc^TM XRS system (Bio-Rad). Primary tumor lysates in RIPA buffer were obtained from Crownbio Bioscience. Cancer cell lines were obtained from the German Collection of Microorganisms and Cell Cultures GmbH (DSMZ), the Korean Cell Line Bank, the Japanese Collection of Research Bio-Resources, or the American Type Culture Collection (ATCC). Tumor cells were lysed in buffer containing 50 mM Tris-HCl, pH 7.5, 500 mM NaCl, 1% Nonidet P-40, 0.25% sodium deoxycholate, 20 mM NaF, protease inhibitor mixture (Roche Applied Science), and phosphatase inhibitor mixtures I and II (Sigma). Tumor or cell lysates were boiled, subjected to 4–20% SDS-PAGE, and transferred to nitrocellulose membrane. Each membrane was blocked in Odyssey Blocking Buffer and incubated with custom-made mouse monoclonal anti-SMYD2 or mouse monoclonal anti-β-actin (Sigma) antibody followed by detection with IRDye680RD goat anti-mouse IgG on the Odyssey Imager.

hABL1(T315I) = biological target: T1, hABL1(T315I) (Homo sapiens, UniProt P00519, T315I); assay: KINOMEscan; type: binding
T1 construct: purchased DiscoverX (KINOMEscan platform)

hBMPR1B = biological target: T2, hBMPR1B (Homo sapiens, UniProt O00238); assay: KINOMEscan; type: binding
T2 construct: purchased DiscoverX

hBRSK2 = biological target: T3, hBRSK2 (Homo sapiens, UniProt Q8IWQ3); assay: KINOMEscan; type: binding
T3 construct: purchased DiscoverX

hCDKL2 = biological target: T4, hCDKL2 (Homo sapiens, UniProt Q92772); assay: KINOMEscan; type: binding
T4 construct: purchased DiscoverX

hCDKL3 = biological target: T5, hCDKL3 (Homo sapiens, UniProt Q8IVW4); assay: KINOMEscan; type: binding
T5 construct: purchased DiscoverX

hCSNK1G2 = biological target: T6, hCSNK1G2 (Homo sapiens, UniProt P78368); assay: KINOMEscan; type: binding
T6 construct: purchased DiscoverX (KINOMEscan platform)

hDCAMKL3 = biological target: T7, hDCAMKL3 (Homo sapiens, UniProt Q9C098); assay: KINOMEscan; type: binding
T7 construct: purchased DiscoverX (KINOMEscan platform)

hEPHA6 = biological target: T8, hEPHA6 (Homo sapiens, UniProt Q9UF33); assay: KINOMEscan; type: binding
T8 construct: purchased DiscoverX

hERBB3 = biological target: T9, hERBB3 (Homo sapiens, UniProt P21860); assay: KINOMEscan; type: binding
T9 construct: purchased DiscoverX

hFLT3(D835H) = biological target: T10, hFLT3(D835H) (Homo sapiens, UniProt P36888, D835H); assay: KINOMEscan; type: binding
T10 construct: purchased DiscoverX

hFLT3(ITD) = assay: KINOMEscan; type: binding, human
hFYN = biological target: T11, hFYN (Homo sapiens, UniProt P06241); assay: KINOMEscan; type: binding
T11 construct: purchased DiscoverX

hGRK1 = biological target: T12, hGRK1 (Homo sapiens, UniProt Q15835); assay: KINOMEscan; type: binding
T12 construct: purchased DiscoverX

hKIT(A829P) = biological target: T13, hKIT(A829P) (Homo sapiens, UniProt P10721, A829P); assay: KINOMEscan; type: binding
T13 construct: purchased DiscoverX (KINOMEscan panel)

hKIT(V559D,T670I) = biological target: T14, hKIT(V559D,T670I) (Homo sapiens, UniProt P10721, T670I/V559D); assay: KINOMEscan; type: binding
T14 construct: purchased DiscoverX (KINOMEscan platform)

hLZK = biological target: T15, hLZK (Homo sapiens, UniProt O43283); assay: KINOMEscan; type: binding
T15 construct: purchased DiscoverX (KINOMEscan platform)

hMEK6 = biological target: T16, hMEK6 (Homo sapiens, UniProt P52564); assay: KINOMEscan; type: binding
T16 construct: purchased DiscoverX

hMKNK2 = biological target: T17, hMKNK2 (Homo sapiens, UniProt Q9HBH9); assay: KINOMEscan; type: binding
T17 construct: purchased DiscoverX

hRET = biological target: T18, hRET (Homo sapiens, UniProt P07949); assay: KINOMEscan; type: binding
T18 construct: purchased DiscoverX (KINOMEscan platform)

hRIPK5 = biological target: T19, hRIPK5 (Homo sapiens, UniProt Q6XUX3); assay: KINOMEscan; type: binding
T19 construct: purchased DiscoverX (KINOMEscan platform)

hTIE2 = biological target: T20, hTIE2 (Homo sapiens, UniProt Q02763); assay: KINOMEscan; type: binding
T20 construct: purchased DiscoverX

hTSSK1B = biological target: T21, hTSSK1B (Homo sapiens, UniProt Q9BXA7); assay: KINOMEscan; type: binding
T21 construct: purchased DiscoverX

hYSK1 = biological target: T22, hYSK1 (Homo sapiens, UniProt O00506); assay: KINOMEscan; type: binding
T22 construct: purchased DiscoverX

hADRα2A = biological target: T23, hADRα2A (Homo sapiens, UniProt P08913); assay: cAMP Agonist (Eurofins-CEREP); details: @ 10 μM
T23 sequence (P08913 1-465): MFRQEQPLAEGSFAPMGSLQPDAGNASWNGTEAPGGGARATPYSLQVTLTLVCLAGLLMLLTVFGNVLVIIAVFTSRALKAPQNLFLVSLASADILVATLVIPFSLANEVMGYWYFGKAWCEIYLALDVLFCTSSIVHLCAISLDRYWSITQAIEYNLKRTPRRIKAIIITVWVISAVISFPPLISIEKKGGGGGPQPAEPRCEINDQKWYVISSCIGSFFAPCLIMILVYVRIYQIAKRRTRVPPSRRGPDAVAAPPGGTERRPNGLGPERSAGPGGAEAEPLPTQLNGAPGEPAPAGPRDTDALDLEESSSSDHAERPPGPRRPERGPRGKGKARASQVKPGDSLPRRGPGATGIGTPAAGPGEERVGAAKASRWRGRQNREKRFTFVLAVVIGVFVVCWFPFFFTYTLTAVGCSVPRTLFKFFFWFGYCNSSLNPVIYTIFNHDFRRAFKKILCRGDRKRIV

hADRβ2 = hADRβ2 (Homo sapiens, UniProt P07550); assay: cAMP Agonist (Eurofins-CEREP); details: @ 10 μM
hOPRm1 = hOPRm1 (Homo sapiens, UniProt P35372); assay: cAMP Agonist (Eurofins-CEREP); details: @ 1 μM

T12 sequence (Q15835 whole entry): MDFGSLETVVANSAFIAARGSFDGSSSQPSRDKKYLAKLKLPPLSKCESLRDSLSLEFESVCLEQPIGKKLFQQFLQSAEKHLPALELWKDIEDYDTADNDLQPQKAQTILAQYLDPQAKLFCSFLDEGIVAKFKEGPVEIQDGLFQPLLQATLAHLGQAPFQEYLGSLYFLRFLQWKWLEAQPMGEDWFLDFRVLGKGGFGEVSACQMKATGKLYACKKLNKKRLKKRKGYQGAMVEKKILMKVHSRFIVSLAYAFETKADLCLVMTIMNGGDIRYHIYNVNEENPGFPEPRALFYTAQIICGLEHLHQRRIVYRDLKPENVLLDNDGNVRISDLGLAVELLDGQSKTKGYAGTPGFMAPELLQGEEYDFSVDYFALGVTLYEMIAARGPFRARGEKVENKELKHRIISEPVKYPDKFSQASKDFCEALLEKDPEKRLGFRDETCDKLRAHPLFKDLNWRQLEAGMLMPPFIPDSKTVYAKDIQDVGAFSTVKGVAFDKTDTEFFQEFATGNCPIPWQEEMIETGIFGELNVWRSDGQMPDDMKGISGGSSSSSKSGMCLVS
T20 sequence (Q02763 23-1124): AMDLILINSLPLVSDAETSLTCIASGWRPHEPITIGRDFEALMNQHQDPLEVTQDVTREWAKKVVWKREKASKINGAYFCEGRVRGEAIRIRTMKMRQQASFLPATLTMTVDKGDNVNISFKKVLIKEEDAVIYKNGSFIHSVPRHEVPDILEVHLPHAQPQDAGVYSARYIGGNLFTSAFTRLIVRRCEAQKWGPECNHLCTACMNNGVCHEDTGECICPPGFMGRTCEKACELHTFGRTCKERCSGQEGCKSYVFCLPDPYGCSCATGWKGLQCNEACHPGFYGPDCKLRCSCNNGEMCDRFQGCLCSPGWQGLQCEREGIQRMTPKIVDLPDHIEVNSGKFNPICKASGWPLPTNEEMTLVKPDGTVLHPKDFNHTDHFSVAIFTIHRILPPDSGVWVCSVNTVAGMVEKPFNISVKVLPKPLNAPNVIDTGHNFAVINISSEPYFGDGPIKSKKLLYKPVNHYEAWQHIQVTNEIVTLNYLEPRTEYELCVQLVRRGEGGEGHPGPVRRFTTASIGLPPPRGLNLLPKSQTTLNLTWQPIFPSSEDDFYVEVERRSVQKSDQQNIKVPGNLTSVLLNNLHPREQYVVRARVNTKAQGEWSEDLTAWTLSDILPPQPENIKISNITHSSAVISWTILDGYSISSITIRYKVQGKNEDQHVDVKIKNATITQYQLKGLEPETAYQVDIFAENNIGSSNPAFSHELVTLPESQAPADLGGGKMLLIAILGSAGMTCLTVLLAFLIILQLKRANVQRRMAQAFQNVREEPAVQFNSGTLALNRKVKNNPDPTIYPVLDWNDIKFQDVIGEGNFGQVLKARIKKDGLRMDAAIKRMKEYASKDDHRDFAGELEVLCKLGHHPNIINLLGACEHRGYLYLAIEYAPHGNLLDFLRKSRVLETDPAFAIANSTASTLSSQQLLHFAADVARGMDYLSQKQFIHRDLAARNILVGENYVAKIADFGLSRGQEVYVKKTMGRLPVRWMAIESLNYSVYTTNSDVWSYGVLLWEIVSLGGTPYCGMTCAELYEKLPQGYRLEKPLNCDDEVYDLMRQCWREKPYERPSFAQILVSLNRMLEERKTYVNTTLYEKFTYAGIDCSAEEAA
T17 sequence (Q9HBH9 whole entry): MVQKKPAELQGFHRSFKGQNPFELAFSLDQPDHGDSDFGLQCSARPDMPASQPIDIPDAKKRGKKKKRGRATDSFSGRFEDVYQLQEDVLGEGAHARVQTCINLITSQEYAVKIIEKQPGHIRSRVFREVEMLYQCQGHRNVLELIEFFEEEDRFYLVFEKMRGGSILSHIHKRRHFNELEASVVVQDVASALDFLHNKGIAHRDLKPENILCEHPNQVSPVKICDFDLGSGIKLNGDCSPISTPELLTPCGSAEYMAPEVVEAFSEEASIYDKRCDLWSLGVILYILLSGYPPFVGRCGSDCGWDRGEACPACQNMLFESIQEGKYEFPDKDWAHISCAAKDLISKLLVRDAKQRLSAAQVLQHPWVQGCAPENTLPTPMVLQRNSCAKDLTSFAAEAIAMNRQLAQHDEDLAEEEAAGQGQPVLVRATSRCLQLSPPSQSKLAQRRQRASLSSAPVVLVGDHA
T22 sequence (O00506 whole entry): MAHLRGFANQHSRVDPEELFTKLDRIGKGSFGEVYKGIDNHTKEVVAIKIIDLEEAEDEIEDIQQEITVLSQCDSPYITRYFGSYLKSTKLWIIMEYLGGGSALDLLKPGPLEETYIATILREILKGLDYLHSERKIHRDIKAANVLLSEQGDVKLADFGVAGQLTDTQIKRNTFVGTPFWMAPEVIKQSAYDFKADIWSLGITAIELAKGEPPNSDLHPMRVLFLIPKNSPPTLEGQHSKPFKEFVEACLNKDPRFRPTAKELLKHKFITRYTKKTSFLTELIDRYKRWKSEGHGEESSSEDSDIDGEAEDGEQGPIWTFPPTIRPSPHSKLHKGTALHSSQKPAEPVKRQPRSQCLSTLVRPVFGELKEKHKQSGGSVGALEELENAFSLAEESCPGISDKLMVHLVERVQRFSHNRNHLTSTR
T18 sequence (P07949 29-1114): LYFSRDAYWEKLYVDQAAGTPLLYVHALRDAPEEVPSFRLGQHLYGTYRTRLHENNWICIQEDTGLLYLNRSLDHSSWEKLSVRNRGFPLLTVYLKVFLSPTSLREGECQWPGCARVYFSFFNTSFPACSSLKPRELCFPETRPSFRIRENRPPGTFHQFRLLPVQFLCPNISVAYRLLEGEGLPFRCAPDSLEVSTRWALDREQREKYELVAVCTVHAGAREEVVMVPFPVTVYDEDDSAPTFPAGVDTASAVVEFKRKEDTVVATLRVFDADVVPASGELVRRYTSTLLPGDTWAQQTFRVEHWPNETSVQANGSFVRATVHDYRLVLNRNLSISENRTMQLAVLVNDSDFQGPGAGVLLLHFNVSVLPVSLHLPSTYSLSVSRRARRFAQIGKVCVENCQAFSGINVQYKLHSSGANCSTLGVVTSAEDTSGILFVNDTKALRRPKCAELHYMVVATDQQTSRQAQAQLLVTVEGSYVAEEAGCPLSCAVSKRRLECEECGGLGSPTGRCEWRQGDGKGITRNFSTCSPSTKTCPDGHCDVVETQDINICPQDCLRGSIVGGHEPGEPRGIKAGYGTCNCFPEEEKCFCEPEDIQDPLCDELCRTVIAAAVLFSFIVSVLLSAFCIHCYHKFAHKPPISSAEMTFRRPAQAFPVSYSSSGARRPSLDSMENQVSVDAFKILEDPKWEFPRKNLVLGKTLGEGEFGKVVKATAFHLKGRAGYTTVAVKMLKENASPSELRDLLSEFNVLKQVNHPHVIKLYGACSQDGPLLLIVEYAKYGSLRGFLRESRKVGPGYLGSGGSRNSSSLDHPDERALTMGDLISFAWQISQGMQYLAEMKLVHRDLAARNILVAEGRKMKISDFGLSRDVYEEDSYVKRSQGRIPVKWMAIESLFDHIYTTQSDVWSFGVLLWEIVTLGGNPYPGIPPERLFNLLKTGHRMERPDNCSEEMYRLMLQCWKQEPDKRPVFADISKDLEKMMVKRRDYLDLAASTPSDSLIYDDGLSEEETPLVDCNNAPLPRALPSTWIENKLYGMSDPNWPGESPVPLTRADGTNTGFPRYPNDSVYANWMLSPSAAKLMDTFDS
T3 sequence (Q8IWQ3 whole entry): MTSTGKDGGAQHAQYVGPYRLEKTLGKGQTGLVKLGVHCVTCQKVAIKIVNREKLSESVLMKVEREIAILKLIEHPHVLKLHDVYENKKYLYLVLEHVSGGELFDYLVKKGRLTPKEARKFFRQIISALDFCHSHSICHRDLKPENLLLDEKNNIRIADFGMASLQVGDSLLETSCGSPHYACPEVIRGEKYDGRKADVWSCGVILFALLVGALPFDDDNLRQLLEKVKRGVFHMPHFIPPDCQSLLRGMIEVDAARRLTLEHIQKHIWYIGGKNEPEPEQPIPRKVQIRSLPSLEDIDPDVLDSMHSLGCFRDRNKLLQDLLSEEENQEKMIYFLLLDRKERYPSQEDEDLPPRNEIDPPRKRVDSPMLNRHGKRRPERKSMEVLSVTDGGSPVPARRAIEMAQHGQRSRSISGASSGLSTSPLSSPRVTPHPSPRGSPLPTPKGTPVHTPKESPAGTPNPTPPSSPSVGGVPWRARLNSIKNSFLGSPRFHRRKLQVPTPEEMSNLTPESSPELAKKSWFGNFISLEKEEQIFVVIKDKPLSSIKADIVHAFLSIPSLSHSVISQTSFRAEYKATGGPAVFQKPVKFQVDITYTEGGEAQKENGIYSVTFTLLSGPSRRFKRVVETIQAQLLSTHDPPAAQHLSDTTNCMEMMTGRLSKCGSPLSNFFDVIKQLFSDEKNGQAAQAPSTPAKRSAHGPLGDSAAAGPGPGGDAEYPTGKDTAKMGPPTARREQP
T5 sequence (Q8IVW4 whole entry): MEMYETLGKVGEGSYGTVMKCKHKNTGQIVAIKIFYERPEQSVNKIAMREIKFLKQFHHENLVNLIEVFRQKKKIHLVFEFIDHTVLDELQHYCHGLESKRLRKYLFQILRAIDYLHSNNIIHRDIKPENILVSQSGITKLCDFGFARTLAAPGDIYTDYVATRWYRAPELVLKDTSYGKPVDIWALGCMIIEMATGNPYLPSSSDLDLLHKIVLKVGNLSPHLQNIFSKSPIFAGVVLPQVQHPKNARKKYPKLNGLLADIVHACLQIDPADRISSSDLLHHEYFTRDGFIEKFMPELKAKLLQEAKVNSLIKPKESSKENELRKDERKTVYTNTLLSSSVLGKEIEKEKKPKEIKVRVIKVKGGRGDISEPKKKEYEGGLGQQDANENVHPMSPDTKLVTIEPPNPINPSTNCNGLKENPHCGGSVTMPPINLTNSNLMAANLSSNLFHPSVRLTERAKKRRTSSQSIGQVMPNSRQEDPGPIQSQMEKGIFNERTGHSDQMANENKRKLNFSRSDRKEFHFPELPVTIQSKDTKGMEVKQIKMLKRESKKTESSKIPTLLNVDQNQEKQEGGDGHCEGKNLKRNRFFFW

## Cc1cn(CCN2CCN(c3ccccc3-c3cc(C#N)cc(C(=O)NCCCN4CCCC4)c3)CC2)c2ccccc12 [LLY-507, 3-cyano-5-{2-[4-[2-(3-methylindol-1-yl)ethyl]piperazin-1-yl]-phenyl}-N-[(3-pyrrolidin-1-yl)propyl]benzamide]
p53 Lys370 methylation; 5 μM LLY-507, SMYD2-overexpressing KYSE-150
  time by which significant reductions in p53 Lys370 methylation occurred: ≤ 18 h
p53 Lys370 methylation; KYSE-150 FLAG-SMYD2
  total levels of p53: not significantly affected
p53 Lys370 methylation; cytoplasmic fraction, KYSE-150 FLAG-SMYD2
  reduction of Lys370 methylation on cytoplasmic p53: 50%
p53 Lys370 methylation; nuclear fraction, KYSE-150 FLAG-SMYD2
  reduction of Lys370 methylation on nuclear p53: 25%
hABL1(T315I)
  IC50: > 20 µM
hBMPR1B
  IC50: > 20 µM
hBRSK2
  IC50: > 20 µM
hCDKL2
  IC50: > 20 µM
hCDKL3
  IC50: > 20 µM
hCSNK1G2
  IC50: > 20 µM
hDCAMKL3
  IC50: > 20 µM
hEPHA6
  IC50: > 20 µM
hERBB3
  IC50: > 20 µM
hFLT3(D835H)
  IC50: > 20 µM
hFLT3(ITD)
  IC50: > 20 µM
hFYN
  IC50: > 20 µM
hGRK1
  IC50: > 20 µM
hKIT(A829P)
  IC50: > 20 µM
hKIT(V559D,T670I)
  IC50: > 20 µM
hLZK
  IC50: > 20 µM
hMEK6
  IC50: > 20 µM
hMKNK2
  IC50: > 20 µM
hRET
  IC50: > 20 µM
hRIPK5
  IC50: > 20 µM
hTIE2
  IC50: > 20 µM
hTSSK1B
  IC50: > 20 µM
hYSK1
  IC50: > 20 µM
hADRα2A
  % Effect, Stimulation: 0.2%
hADRβ2
  % Effect, Stimulation: 0.1%
hOPRm1
  % Effect, Stimulation: 7.4%

Reference: publication PMC4447944 (The Journal of Biological Chemistry, 2015)
